Source: patent US20100227853A1, “INHIBITORS OF CYCLIC AMP PHOSPHODIESTERASES” (Trustees of Boston College, priority 2008, published 2010)
“And” between values parts separate entries of the source, which are not always exact repeats. Equal values may be shown once. “Also recorded” adds a separate entry of the source. Each block holds one compound with its values, some of them ahead of it.

Tests used:
[1] = target: T1, PDE7B (Rattus norvegicus, UniProt A0A0G2JXU0); assay: in vitro enzyme assay of PDE7B activity in extracts from rat pulmonary endothelial cells; type: biochemical
T1 construct: endogenous in cells; host or cells: rat pulmonary endothelial cells (extract)
T1 sequence (A0A0G2JXU0 1-446): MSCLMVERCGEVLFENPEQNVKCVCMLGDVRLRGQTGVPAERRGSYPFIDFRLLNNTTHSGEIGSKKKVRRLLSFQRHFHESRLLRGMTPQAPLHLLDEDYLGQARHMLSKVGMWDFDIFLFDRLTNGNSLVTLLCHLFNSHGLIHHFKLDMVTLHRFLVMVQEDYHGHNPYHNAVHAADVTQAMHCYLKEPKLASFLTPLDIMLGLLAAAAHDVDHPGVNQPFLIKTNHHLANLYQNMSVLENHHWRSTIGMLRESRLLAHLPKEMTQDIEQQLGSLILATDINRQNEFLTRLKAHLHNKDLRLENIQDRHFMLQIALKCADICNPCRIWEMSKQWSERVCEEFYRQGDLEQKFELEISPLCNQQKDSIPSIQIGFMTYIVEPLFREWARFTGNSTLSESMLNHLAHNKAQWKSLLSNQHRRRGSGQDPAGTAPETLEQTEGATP
Excerpt: FIG. 13 is the in vitro enzyme assays of PDE7B activity in extracts made from rat pulmonary endothelial cells.

[2] = test system: U937 cells; assay: TNF alpha release by LPS-treated U937 cells; type: cell-based
[3] = test system: Jurkat cells; assay: IL2 secretion by concanavalin A treated Jurkat cells; type: cell-based, human; conditions: ConA 10 μg/ml, prostaglandin E2, 24 hours
Excerpt: Jurkat cells, a human T cell lymphoblast-like cell line, increase expression of the cytokine IL2 in response to stimulation by concanavalin A (conA). This effect can be inhibited by elevated cAMP levels, although PDE4 inhibition alone appears to be insufficient to prevent IL2 induction (Kaminuma et al., Immunopharmacology, 1998 January; 38(3):247-52). However, the anti-inflammatory effect of PDE4 inhibitors can be detected using this assay by their ability to enhance the reduction of IL2 secretion by prostaglandin E2. IL2 levels are measured in Jurkat cells (5×10^5 cells/ml) stimulated by 10 μg/ml ConA in the presence of prostaglandin E2, with or without each test compound ([…]). After incubation at 37° C. for 24 hours, the resulting supernatant were collected and kept frozen at −70° C. until the time of assay. IL2 in the supernatants were measured by ELISA and the data is presented as a percentage of the PGE2 treated culture (FIG. 12).

[4] = test system: PDE4A, PDE4B, PDE4D, PDE7A, PDE7B, PDE8A, PDE3A; assay: Summary of PDE inhibitor profile
[5] = target: PDE7B (Homo sapiens, UniProt Q9NP56); assay: cAMP elevation in yeast PDE7B-expressing strain; type: cell-based; parameters: targets used in the assays are full-length proteins (as opposed to simply the catalytic domain); expressed in transfected cells; host or cells: Schizosaccharomyces pombe
[6] = test system: PDE4A, PDE4B, PDE4D, PDE7A, PDE7B, PDE8A, PDE3A; assay: Summary of PDE inhibitor profile; parameters: key: (1): Weak PDE7A inhibitor; (2): Strong PDE7A inhibitor; (3): Lillte/no activity under conditions used; (4): Weak PDE4A inhibitor; conditions: overall classification, Table 18 footnotes
[7] = target: PDE7A (Homo sapiens, UniProt Q13946); assay: cAMP response in yeast strain expressing PDE7A; type: cell-based; parameters: targets used in the assays are full-length proteins (as opposed to simply the catalytic domain); expressed in transfected cells; host or cells: Schizosaccharomyces pombe, PDE gene integrated in place of cgs2; conditions: PDE 7A; relative to BRL50481
[8] = target: T2, PDE2A (Mus musculus, UniProt Q922S4); assay: cAMP levels in yeast strain expressing PDE2A; type: cell-based, murine; conditions: 20 μM EHNA as compared to 200 μM
T2 construct: targets used in the assays are full-length proteins (as opposed to simply the catalytic domain); expressed in transfected cells; host or cells: Schizosaccharomyces pombe, PDE gene integrated in place of cgs2 (strains LWP371, LWP364)
T2 sequence (Q922S4 1-939): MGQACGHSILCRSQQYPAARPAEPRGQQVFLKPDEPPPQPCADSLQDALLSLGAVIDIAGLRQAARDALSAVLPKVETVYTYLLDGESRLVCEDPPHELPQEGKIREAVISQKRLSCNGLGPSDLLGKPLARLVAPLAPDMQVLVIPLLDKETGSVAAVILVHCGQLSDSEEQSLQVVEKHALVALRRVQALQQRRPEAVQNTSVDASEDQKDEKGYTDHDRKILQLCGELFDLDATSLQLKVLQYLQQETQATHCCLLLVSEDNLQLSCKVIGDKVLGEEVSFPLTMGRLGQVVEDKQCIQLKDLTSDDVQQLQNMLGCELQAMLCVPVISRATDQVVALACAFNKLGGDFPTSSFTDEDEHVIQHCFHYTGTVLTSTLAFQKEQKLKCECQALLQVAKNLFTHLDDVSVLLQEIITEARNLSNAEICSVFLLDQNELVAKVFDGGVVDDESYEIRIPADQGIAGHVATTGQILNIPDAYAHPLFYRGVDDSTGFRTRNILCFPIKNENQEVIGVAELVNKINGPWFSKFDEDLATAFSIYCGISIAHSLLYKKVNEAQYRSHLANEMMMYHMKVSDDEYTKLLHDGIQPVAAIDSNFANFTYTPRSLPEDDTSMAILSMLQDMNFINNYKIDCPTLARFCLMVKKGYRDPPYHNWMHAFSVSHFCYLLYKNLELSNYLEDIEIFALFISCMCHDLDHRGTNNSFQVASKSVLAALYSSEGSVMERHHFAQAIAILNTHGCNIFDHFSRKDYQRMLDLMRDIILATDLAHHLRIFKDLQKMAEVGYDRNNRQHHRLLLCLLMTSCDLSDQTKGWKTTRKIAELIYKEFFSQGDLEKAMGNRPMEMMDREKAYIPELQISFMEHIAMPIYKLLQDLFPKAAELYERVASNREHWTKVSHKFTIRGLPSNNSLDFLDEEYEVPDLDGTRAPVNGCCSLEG
Procedure: Values represent the average and SD of two or three independent experiments. […] The strains used are as in FIG. 5A, together with strain CHP1141 (PDE8A). Values represent the average and SD of two or three independent experiments.
(§1) β-galactosidase assays and characterization of 5FOA-sensitivity were carried out as previously described^10. cAMP assays were performed on exponential phase cells grown in EMM complete medium (3% glucose), using the Assay Designs cAMP EIA kit, according to manufacturer's instructions (Assay Designs, Ann arbor, Mich.).
Thus, PDE inhibition can be indirectly quantitated by measuring the effect of a compound on cAMP levels in target yeast strains.

[9] = target: T2, PDE2A; assay: fbp1-lacZ β-galactosidase reporter assay, PDE2A strain; type: cell-based, murine; conditions: strain LWP367 (PDE2A)
Procedure: as §1
The effect of known PDE inhibitors on the expression of the fbp1-lacZ fusion in murine PDE-expressing strains was tested. […] For Table 4 β-galactosidase activity was determined from 3 to 4 independent exponential phase cultures. The average±SD represents specific activity per milligram of soluble protein.

[10] = test system: Lymphoma cells; assay: in vitro assay on lymphoma cells (24 hours, Hoechst stain, fsc/ssc); type: cell-based
Procedure: FIGS. 6A and 6B show the in vitro assay of BC54 action. Lymphoma cells are treated with the drug for 24 hours, then stained with Hoechst dye. The cells form a clearly defined population on the fsc/ssc dot plot. Vincristine treatment was used as a positive control. […] BC54 is referred to in the figure as S54.

[11] = test system: transplanted tumors (lymphomas); assay: in vivo assay in mice with transplanted tumors (lymphomas)
Procedure: FIGS. 7A and 7B show results of an in vivo assay of BC54 action.
A 7 day experiment was conducted to determine the effect of BC54 on mice having transplanted tumors (lymphomas). Drugs were given i.p. once a day in 60-100 ul of PBS. • 3 animals got just BC54—to assess toxicity • 3 animals injected with lymphoma and treated with BC54 • 3 animals—no treatment • 1 animal—CHOP 0.5 MTD
BC54 dose was 3 ul of 100 mM solution per mouse per injection. […]. […] After 7 days, the untreated mice were terminally ill. The group treated with BC54 looked better although they do show some clinical signs (hunched posture etc). […] Tumor load was evaluated in the spleen and in the peritoneal lymph nodes (FIG. 7).

[12] = test system: PBMC cells; assay: proliferation and viability of PBMC cells; type: cell-based
Excerpt: FIGS. 8A, 8B and 8C show the effect of BC54 on the proliferation and viability of PBMC cells.

[13] = test system: SIVmac239; assay: antiviral activity, SIV p27 ELISA in infected PBMC; type: cell-based, rhesus macaques; conditions: for reduction in viral load: treatment on Day 1 and Day 3, SIV p27 ELISA
Procedure: PBMC cells were isolated from uninfected rhesus macaques and mitogen stimulated (PHA). The cells were then incubated with SIVmac239 for 2 hours, following which they were washed to remove any free virus. BC54 was then added to the infected cells. Fresh compound was added after 3 days. The antiviral activity was measured by SIV p27 ELISA on day 3 and 7, while the cell viability was determined on day 7 by MTT assay. The treatment of cells on Day 1 and Day 3, leads to a 30-fold and 100-fold reduction in viral load on Days 4 and 7, respectively.

[14] = test system: CLL; assay: CLL assay; type: cell-based

Sequence of PDE7A (Q13946 whole entry, the tested form may be a part): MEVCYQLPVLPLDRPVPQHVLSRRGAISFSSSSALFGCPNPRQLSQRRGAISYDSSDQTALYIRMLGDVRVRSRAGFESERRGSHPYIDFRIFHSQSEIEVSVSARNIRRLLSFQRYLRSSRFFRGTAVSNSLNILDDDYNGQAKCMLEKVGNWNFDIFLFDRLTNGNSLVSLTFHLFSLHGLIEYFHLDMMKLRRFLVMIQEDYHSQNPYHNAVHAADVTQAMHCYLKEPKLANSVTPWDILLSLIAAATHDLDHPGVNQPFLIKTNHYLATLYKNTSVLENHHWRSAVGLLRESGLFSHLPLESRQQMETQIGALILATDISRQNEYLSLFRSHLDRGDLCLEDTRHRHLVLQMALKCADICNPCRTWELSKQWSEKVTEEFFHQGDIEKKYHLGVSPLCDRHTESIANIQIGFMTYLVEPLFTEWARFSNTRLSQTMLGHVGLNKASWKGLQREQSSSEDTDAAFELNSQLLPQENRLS
Sequence of PDE7B (Homo sapiens, UniProt Q9NP56) (Q9NP56 whole entry, species assumed, the tested form may be a part): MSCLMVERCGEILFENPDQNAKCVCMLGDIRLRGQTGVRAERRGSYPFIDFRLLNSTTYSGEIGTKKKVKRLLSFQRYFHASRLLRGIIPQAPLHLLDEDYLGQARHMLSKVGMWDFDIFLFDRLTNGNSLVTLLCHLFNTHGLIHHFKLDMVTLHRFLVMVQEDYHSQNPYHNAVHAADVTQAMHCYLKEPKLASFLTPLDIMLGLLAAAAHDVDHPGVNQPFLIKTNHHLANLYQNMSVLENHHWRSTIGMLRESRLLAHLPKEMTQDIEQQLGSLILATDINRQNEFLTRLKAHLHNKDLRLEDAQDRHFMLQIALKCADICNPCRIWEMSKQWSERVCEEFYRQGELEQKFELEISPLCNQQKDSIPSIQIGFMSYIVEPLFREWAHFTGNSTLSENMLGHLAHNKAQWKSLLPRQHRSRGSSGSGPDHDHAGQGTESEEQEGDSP

KI lower than that of BRL50481 ([1]; PDE7B, rat pulmonary endothelial cell extracts): approximately 100 fold | Ki ([1]; cell extracts, read-out: KI on PDE7 (PDE7B) from rat pulmonary endothelial cells): ~200 nM and 200 nM | cAMP in yeast PDE7B-expressing strain, in words [5]: induced cAMP elevation
SMILES: Cc1sc2ncnc(NC3CCCCC3)c2c1C [BC28]
TNF alpha reduction, conclusion in words [2]: TNFα synergy with PDE4 inhibitors, though not as strong as for BC30 | IL2 expression from Jurkat cells, in words [3]: strong reduction | PDE inhibitor profile, in words [4]: potent PDE7B inhibitor

cAMP Response (% BRL50481) 7A [7]: 89.00 % BRL50481
SMILES: COc1ccc2c(c1)C1(C)CCC(=O)CC1CC2 (single isomer, unassigned) [Compound 11]
PDE inhibitor profile (Table 18) [6]: 11 (3)

inhibition of PDE2A judged by cAMP levels [8]: partial inhibition | β-galactosidase activity ([9]; 5 μM EHNA): 473 ± 19 | β-galactosidase activity ([9]; 20 μM EHNA): 197 ± 51 | β-galactosidase activity ([9]; 200 μM EHNA): 45 ± 3
SMILES: CCCCCC[C@@H]([C@@H](C)O)n1cnc2c(N)ncnc21 (racemic) [EHNA]

SMILES: CCOC(=O)c1cc2c(=O)n3ccccc3nc2n(C2CCCCC2)/c1=N/C(C)=O [BC54]
TNF alpha reduction, conclusion in words [2]: good activity | apoptosis of lymphoma cells, in words [10]: induces apoptosis | "live" population gone ([10]; 24 hours treatment): ~100% | toxicity in mice ([11]; 3 ul of 100 mM solution per mouse per injection, i.p. once a day): no major signs of toxicity | spleen tumor burden ([11]; i.p. once a day, 7 days): No significant effect | tumor load in lymph nodes ([11]; i.p. once a day, 7 days): reduces the tumor load in lymph nodes | clinical appearance after 7 days ([11]; lymphoma-bearing mice): looked better | efficacy in mouse DLBCL model, in words ([11]; mouse, in vivo): effective | toxicity to PBMC cells (proliferation and viability) [12]: not found to be very toxic | efficacy in SIV cell culture, in words [13]: effective | reduction in viral load ([13]; Day 4): 30 fold | reduction in viral load ([13]; Day 7): 100 fold | activity in CLL assay, in words [14]: good activity | PDE inhibitor profile, in words [4]: good PDE4 and PDE7 combination inhibitor; also recorded: affects PDE4D, but is weaker than on other 4 s and 7 s | effect on PDE8A or PDE3A [4]: no effect
